In patent EP1606307B1, “ESTRIENO[3,2-B]/[3,4-C]PYRROLE DERIVATIVES USEFUL AS MODULATORS OF THE ESTROGEN RECEPTORS” (Ortho-McNeil Pharmaceutical, Inc., priority 2002, dated 2004) one finds inhibition, EC50 and IC50 data, which are given here for 10 molecules.

In assay [1] the target is T1, human estrogen receptor β (Homo sapiens, UniProt Q92731).
T1 construct: purchased Panvera
Put plainly: Estrogen Receptor β Fluorescence Polarization Assay (Fluormone ES2 displacement). Type of assay: binding. The note with it: read-out: ERβ at 1 µM % Inhibition. An excerpt: This assay monitors binding of a fluorescent analog of estrogen (Fluormone ES2, Panvera) to the estrogen receptor. Plates were read in a fluorometer that can be set to polarization mode. A decrease in fluorescence relative to vehicle control is an indication of binding of a compound to the receptor.
It is crucial to avoid introduction of air bubbles into the reaction in each well of the 96 well plate throughout this procedure. (Bubbles on the surface of the reaction disrupt light flow, affecting the polarization reading.) However, it is also crucial to effectively mix the reaction components upon addition to the well.
On ice, a 2X standard mixture of Assay Buffer (Panvera), 10 nM DTT and 40 nM ES2 was prepared. On ice, a 2X reaction mixture of Assay Buffer (Panvera), and 20 nM human estrogen receptor β (hER-β, Panvera) and 40 nM ES2 was also prepared.
Dilutions of test compound were prepared in 30% (v/v) dimethyl sulfoxide/50 mM HEPES, pH 7.5. At this point, the dilutions were 40X the final required concentration.
The standard mixture at 50 µL was then added to each well. The reaction mixture at 48 µL was added to all wells. The compound dilution at 2.5 µL was added to the appropriate wells. The reaction mixtures were mixed using a manual pipette, a roll of aluminum foil adhesive cover was placed on the plate and the plate incubated at room temperature for 1 hour.
Each well on the plate was then read in an LjL Analyst with an excitation wavelength of […] and an emission wavelength of 538.

Assay [2] has as its target T2, human estrogen receptor α (Homo sapiens, UniProt P03372).
T2 construct: purchased Panvera
T2 sequence (P03372 1-595): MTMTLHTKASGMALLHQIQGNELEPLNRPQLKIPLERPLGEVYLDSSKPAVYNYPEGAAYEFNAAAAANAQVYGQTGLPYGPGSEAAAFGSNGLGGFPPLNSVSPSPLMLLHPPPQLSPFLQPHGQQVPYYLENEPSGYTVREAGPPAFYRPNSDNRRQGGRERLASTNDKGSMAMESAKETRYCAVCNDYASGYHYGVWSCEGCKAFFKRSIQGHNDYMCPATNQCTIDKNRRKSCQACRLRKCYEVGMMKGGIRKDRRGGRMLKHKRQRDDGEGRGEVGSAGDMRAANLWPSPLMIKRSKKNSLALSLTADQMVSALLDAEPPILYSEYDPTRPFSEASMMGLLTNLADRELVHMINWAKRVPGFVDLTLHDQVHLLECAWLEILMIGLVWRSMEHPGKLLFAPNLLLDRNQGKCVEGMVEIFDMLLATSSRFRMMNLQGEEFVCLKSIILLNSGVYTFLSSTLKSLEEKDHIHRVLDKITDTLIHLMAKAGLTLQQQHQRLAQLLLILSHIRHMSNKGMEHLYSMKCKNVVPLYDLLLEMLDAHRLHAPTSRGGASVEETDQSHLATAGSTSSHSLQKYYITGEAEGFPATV
Put plainly: Estrogen Receptor α Flash Plate Assay (binding of radiolabeled estrogen). Particulars: for inhibition at 1 µM: read-out: ERα at 1µM % Inhibition; for IC50: read-out: ERα Binding IC50. The procedure: This assay monitors binding of radiolabeled estrogen to the estrogen receptor. It was performed on a BioMek 2000 (Beckman). Plates were read in a scintillation counter (Packard TopCount), with decreased counts an indication of binding of a compound to the receptor. The assay was run according to the procedure described by Allan, et al., Anal. Biochem. (1999), 275(2), 243-247.
On day one, 100 µL of Estrogen Screening Buffer (ESB, Panvera) containing 5mM dithiothreitol (DTT, Panvera), 0.5 µg mouse anti-estrogen receptor monoclonal antibody (SRA-1010, Stressgen) and 50 ng purified human estrogen receptor α (nER-α, Panvera) were added to each well of a 96 well FlashPlate Plus plate crosslinked with goat anti-mouse antibodies (NEN Life Sciences). The plate was sealed and incubated at 4°C overnight.
On day two, each well was washed three times with 200 µL PBS, pH 7.2, at room temperature. To each well was then added 98 µL radiolabeled estrogen (0.5 nM, which equals 6 nCi for a 120 Ci/mmol batch, Amersham), diluted in ESB and 5mM dithiothreitol (DTT). To individual wells were then added 2.5 µL test compound diluted in 30% (v/v) dimethyl sulfoxide/50 mM HEPES, pH 7.5. The wells were mixed three times by aspiration, the plate sealed and incubated at room temperature for one hour. The wells were then counted for 1 min in a TopCount scintillation counter (Packard).

Assay [3] relates to Human Endometrial lshikawa Cells. As to the kind of experiment: Alkaline Phosphatase Assay in Human Endometrial Ishikawa Cells. Type of assay: cell-based. The note with it: increase in alkaline phosphatase activity vs vehicle. The procedure:
This assay was run according to the procedure described by Albert et a., Cancer Res, […], 50(11), 330-6-10, with minor modification.
Ishikawa cells (from ATCC) were maintained in DMEM/F12 (1:1) phenol red free medium (Gibco) supplemented with 10% calf serum (Hyclone). 24 hours prior to testing, the medium was changed to DMEM/F12 (1:1) phenol red free containing 2% calf serum.
Compounds to be tested in the agonist mode were added to the culture media at varying concentrations. Compounds to be treated in the antagonist mode were prepared similarly, and 10 nM 17β-estradiol was also added to the culture media. The cells were then incubated at 37°C for 3 days. On the fourth day, the media was remove, 1 volume of 1X Dilution Buffer (Clontech) was added to the well followed by addition of 1 volume of Assay Buffer (Clontech). The cells were then incubated at room temperature for 5 minutes. 1 volume of freshly prepared Chemiluminescence Buffer (1 volume of chemiluminescent substrate (CSPD) in 19 volume Chemiluminescent Enhancer with final concentration of CSPD at 1.25 mM; Sigma Chemical Co.) was added. The cells were incubated at room temperature for 10 minutes and then quantified on a luminometer. The increase of chemiluminescence over vehicle control was used to calculate the increase in alkaline phosphatase activity.

In another assay the test system is MCF-7 cells. As to the kind of experiment: MCF-7 Cell Proliferation Assay (14C-thymidine incorporation). Type of assay: cell-based. Particulars: Homo sapiens, MCF7, increase in 14C-thymidine vs vehicle, read-out: MCF7 (Breast) EC50. The procedure:
This assay was run according to the procedure described by Welshons, et al., (Breast Cancer Res. Treat., 1987, 10(2), 169-75), with minor modification.
Briefly, MCF-7 cells (from Dr. C. Jordan, Northwestern University) were maintained in RPMI 1640 phenol red free medium (Gibco) in 10% FBS (Hyclone), supplemented with bovine insulin and non-essential amino acid (Sigma). The cells were initially treated with 4-hydoxyltamoxifen (10^-8 M) and let stand at 37°C for 24 hours. Following this incubation with tamoxifen, the cells were treated with compounds at various concentrations.
Compounds to be tested in the agonist mode were added to the culture media at varying concentrations. Compounds to be treated in the antagonist mode were prepared similarly, and 10 nM 17β-estradiol was also added to the culture media. The cells were incubated for 24 hours at 37°C. Following this incubation, 0.1 µCi of ^14C-thymidine (56mCi/mmol, Amersham) was added to the culture media and the cells were incubated for an additional 24 hours at 37°C. The cells were then washed twice with Hank's buffered salt solution (HBSS) (Gibco) and counted with a scintillation counter. The increase in the ^14C-thymidine in the compound treated cells relative to the vehicle control cells were reported as percent increase in cell proliferation.
A general note: Uptake of a labelled nucleoside into DNA is a usual measure of proliferation.

SMILES strings stand for the structures.

T1 sequence (Q92731 whole entry): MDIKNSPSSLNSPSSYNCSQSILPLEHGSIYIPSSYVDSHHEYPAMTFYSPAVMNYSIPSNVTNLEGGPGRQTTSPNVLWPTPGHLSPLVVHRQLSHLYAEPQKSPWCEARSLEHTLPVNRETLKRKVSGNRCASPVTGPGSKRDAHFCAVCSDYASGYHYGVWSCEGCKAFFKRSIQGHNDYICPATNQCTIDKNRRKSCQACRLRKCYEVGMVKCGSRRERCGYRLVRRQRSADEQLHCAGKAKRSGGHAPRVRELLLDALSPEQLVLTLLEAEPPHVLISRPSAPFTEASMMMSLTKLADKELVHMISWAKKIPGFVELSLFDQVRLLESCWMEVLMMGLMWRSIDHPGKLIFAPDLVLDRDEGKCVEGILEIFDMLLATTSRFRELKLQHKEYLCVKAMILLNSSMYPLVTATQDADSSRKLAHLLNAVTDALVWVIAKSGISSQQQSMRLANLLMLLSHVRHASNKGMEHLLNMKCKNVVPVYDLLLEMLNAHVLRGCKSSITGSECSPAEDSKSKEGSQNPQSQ

As a reminder, the inhibition is the change of the read-out against control, counted positive when it falls. For the molecule `C[C@]12CCC3c4cc5ccn(S(C)(=O)=O)c5cc4CCC3C1CCC2=O` (stereo partly shown) [Compound 1], the results for the inhibition at 1 µM in assay [1] and in assay [2] were 6.2% and 11%, respectively.

On to `C[C@]12CCC3c4ccc5c(ccn5S(C)(=O)=O)c4CCC3C1CCC2=O` (stereo partly shown) [Compound 2], for which the inhibition at 1 µM in assay [1] amounted to 27%; in assay [2], 45%.

A word on the EC50: it is the concentration giving half of the maximal effect. Usually IC50 stands for the midpoint of a concentration-inhibition curve. Take `C[C@]12CCC3c4cc5cc[nH]c5cc4CCC3C1CCC2=O` (stereo partly shown) [Compound 3]: the figures for the EC50 (in assay [3]; in the assay with MCF-7 cells) were 1.9 nM and 240 nM, respectively. Besides, in assay [2], the IC50 was determined as 2200 nM.

`C[C@]12CCC3c4ccc5[nH]ccc5c4CCC3C1CCC2=O` (stereo partly shown) [Compound 4]: the EC50 was 1.8 nM in assay [3] and 280 nM in the assay on MCF-7 cells. The IC50 in assay [2] was 1400 nM.

Turning to `C[C@]12CCC3c4ccc5[nH]ccc5c4CCC3C1CC[C@@H]2O` (stereo partly shown) [Compound 6], the EC50 was 0.21 nM in assay [3] and 2.9 nM in the assay with MCF-7 cells. The IC50 in assay [2] was 42 nM.

In the case of `C[C@]12CCC3c4cc5ccn(S(C)(=O)=O)c5cc4CCC3C1CC[C@@H]2O` (stereo partly shown) [Compound 7], the inhibition at 1 µM stood at 14% in assay [1] and 19% in assay [2].

In the case of `C[C@]12CCC3c4cc5cc[nH]c5cc4CCC3C1CC[C@@H]2O` (stereo partly shown) [Compound 8], the EC50 in assay [3] amounted to 0.44 nM; in the assay with MCF-7 cells it was 11 nM. In assay [2], the IC50 was found to be 40 nM.

For the molecule `CCCCC(=O)O[C@H]1CCC2C3CCc4cc5[nH]ccc5cc4C3CC[C@@]21C` (stereo partly shown) [Compound 12], the inhibition at 1 µM in assay [1] came out at 96%; in assay [2] it was 95%.

Take `C[C@]12CCC3c4cc5cc[nH]c5cc4CCC3C1CC[C@@H]2OC(=O)CCC(=O)O` (stereo partly shown) [Compound 13]: the values for the EC50 (in assay [3]; in the assay with MCF-7 cells) were 1.2 nM and 15 nM, respectively. Moreover, in assay [2], the IC50 was found to be 920 nM.

Turning to `CSc1c[nH]c2ccc3c(c12)CCC1C3CC[C@]2(C)C(=O)CCC12` (stereo partly shown) [Compound 15], the inhibition at 1 µM was 66% in assay [1] and 81% in assay [2].
